Results taken from patent US10519134B2, “Pyrazole compounds and methods of making and using same” (Lundbeck La Jolla Research Center, Inc., priority 2015, dated 2019).
pIC50: −log10 of the molar value.

What was measured:
MAGL = target: T1, MAGL (Mus musculus, UniProt O35678); assay: In vitro competitive activity-based protein profiling (mouse), MAGL gel band; type: biochemical; details: for inhibition at 1 µM: read-out: MAGL % inh. 1 μM; for pIC50: mouse
T1 construct: Proteomes (mouse brain membrane fraction or cell lysates); from tissue; host or cells: mouse brain membrane fraction (or cell lysates)
T1 sequence (O35678 1-303): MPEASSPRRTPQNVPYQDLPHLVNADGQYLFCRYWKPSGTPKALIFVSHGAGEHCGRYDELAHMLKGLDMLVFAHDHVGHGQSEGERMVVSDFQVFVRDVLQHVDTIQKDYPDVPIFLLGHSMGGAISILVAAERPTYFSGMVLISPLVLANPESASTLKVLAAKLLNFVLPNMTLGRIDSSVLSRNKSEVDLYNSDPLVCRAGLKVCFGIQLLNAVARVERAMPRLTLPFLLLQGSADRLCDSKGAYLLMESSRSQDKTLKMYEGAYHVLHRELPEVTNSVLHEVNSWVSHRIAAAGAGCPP
Experimental: (§1) In Vitro Competitive Activity-Based Protein Profiling (Mouse).
(§2) Proteomes (mouse brain membrane fraction or cell lysates) (50 μL, 1.0 mg/mL total protein concentration) were preincubated with varying concentrations of inhibitors at 37° C. After 30 min, FP-Rh or HT-01 (1.0 μL, 50 μM in DMSO) was added and the mixture was incubated for another 30 min at 37° C. Reactions were quenched with SDS loading buffer (15 μL—4×) and run on SDS-PAGE. Following gel imaging, serine hydrolase activity was determined by measuring fluorescent intensity of gel bands corresponding to MAGL, ABHD6, and FAAH, using ImageJ 1.43u software.

FAAH = target: T2, FAAH (Mus musculus, UniProt O08914); assay: In vitro competitive activity-based protein profiling (mouse), FAAH gel band; type: biochemical; details: for inhibition at 1 µM: read-out: FAAH % inh. 1 μM; for pIC50: mouse
T2 construct: Proteomes (mouse brain membrane fraction or cell lysates); from tissue; host or cells: mouse brain membrane fraction (or cell lysates)
T2 sequence (O08914 1-579): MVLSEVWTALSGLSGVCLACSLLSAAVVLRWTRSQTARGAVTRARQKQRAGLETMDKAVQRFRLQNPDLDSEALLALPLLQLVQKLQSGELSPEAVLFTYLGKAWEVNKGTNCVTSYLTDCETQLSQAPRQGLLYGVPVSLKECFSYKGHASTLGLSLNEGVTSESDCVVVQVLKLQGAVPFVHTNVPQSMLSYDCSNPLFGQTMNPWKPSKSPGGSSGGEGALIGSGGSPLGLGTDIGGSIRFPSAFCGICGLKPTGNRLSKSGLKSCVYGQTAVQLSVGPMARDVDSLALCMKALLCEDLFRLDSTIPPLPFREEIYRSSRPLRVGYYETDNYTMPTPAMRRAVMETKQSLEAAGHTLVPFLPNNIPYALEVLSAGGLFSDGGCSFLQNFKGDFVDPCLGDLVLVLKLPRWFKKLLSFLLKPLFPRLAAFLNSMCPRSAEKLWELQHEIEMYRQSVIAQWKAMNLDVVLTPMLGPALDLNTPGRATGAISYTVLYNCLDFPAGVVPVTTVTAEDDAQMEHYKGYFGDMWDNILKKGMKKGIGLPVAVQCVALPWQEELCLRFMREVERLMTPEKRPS
Experimental: as §1, §2

Row | Compound | inhibition at 1 µM (MAGL) [%] | inhibition at 1 µM (FAAH) [%] | pIC50 (MAGL) | pIC50 (FAAH)
1 | CC(=O)Nc1ccn(C(=O)N2CCC3(CCCN3Cc3ccc4[nH]cnc4c3)CC2)n1 [Example 253, N-(1-(1-((1H-benzo[d]imidazol-5-yl)methyl)-1,8-diazaspiro[4.5]decane-8-carbonyl)-1H-pyrazol-3-yl)acetamide] | 50 to 75 | 0 to 25 |  | 
2 | CS(=O)(=O)Nc1ccn(C(=O)N2CCC3(CCCN3Cc3cc(N4CCC(C(=O)O)C4)cc(C(F)(F)F)c3)CC2)n1 (centres unmarked) [Example 247, 1-(3-((8-(3-(methylsulfonamido)-1H-pyrazole-1-carbonyl)-1,8-diazaspiro[4.5]decan-1-yl)methyl)-5-(trifluoromethyl)phenyl)pyrrolidine-3-carboxylic acid] | 0 to 25 | 0 to 25 |  | 
3 | CS(=O)(=O)Nc1ccn(C(=O)N2CCN(Cc3ccc(C(F)(F)F)cc3N3CCN(CC(=O)O)CC3)CC2)n1 [Example 241, 2-(4-(2-((4-(3-(methylsulfonamido)-1H-pyrazole-1-carbonyl)piperazin-1-yl)methyl)-5-(trifluoromethyl)phenyl)piperazin-1-yl)acetic acid] | 50 to 75 | 0 to 25 |  | 
4 | CS(=O)(=O)Nc1ccn(C(=O)N2CCN(Cc3ccc(C(F)(F)F)cc3-c3nnn[nH]3)CC2)n1 [Example 259, N-(1-(4-(2-(1H-tetrazol-5-yl)-4-(trifluoromethyl)benzyl)piperazine-1-carbonyl)-1H-pyrazol-3-yl) methanesulfonamide] | 50 to 75 | 0 to 25 |  | 
5 | CC(=O)N1CC2(CCN(c3ccccc3CN3CCN(C(=O)n4ccc(NS(C)(=O)=O)n4)CC3)C2)C1 [Example 122, N-(1-(4-(2-(2-acetyl-2,6-diazaspiro[3.4]octan-6-yl)benzyl)piperazine-1-carbonyl)-1H-pyrazol-3-yl) methanesulfonamide] | 50 to 75 | 0 to 25 |  | 
6 | CS(=O)(=O)Nc1ccn(C(=O)N2CCC3(CCCN3Cc3cccc(N4CCCC4)c3Cl)CC2)n1 [Example 141, N-(1-(1-(2-chloro-3-(pyrrolidin-1-yl)benzyl)-1,8-diazaspiro[4.5]decane-8-carbonyl)-1H-pyrazol-3-yl) methanesulfonamide] | ≥ 75 | 0 to 25 | 6.00 to 7.00 | 5.00 to 6.00
7 | CC(=O)Nc1ccn(C(=O)N2CCC3(CCCN3Cc3ccc(C(F)(F)F)cc3N3CCCCC3)CC2)n1 [Example 19, N-(1-(1-(2-(piperidin-1-yl)-4-(trifluoromethyl)benzyl)-1,8-diazaspiro[4.5]decane-8-carbonyl)-1H-pyrazol-3-yl)acetamide] | ≥ 75 | 0 to 25 | ≥ 7.00 | 5.00 to 6.00
8 | CC(=O)Nc1ccn(C(=O)N2CCC3(CCCN3Cc3ccc(Cl)cc3N3CCN(C(C)=O)CC3)CC2)n1 [Example 36, N-(1-(1-(2-(4-acetylpiperazin-1-yl)-4-chlorobenzyl)-1,8-diazaspiro[4.5]decane-8-carbonyl)-1H-pyrazol-3-yl)acetamide] | ≥ 75 | 0 to 25 | 6.00 to 7.00 | 5.00 to 6.00
9 | CC(=O)Nc1ccn(C(=O)N2CCN(Cc3ccc(Cl)cc3N3CCC(F)(F)CC3)CC2)n1 [Example 57, N-(1-(4-(4-chloro-2-(4,4-difluoropiperidin-1-yl)benzyl)piperazine-1-carbonyl)-1H-pyrazol-3-yl)acetamide] | ≥ 75 | 0 to 25 | ≥ 7.00 | 5.00 to 6.00
10 | CS(=O)(=O)Nc1ccn(C(=O)N2CCC3(CCCN3Cc3cccc(N4CCCCC4)c3Cl)CC2)n1 [Example 144, N-(1-(1-(2-chloro-3-(piperidin-1-yl)benzyl)-1,8-diazaspiro[4.5]decane-8-carbonyl)-1H-pyrazol-3-yl) methanesulfonamide] | ≥ 75 | 0 to 25 | 6.00 to 7.00 | 5.00 to 6.00
11 | Cc1c(CN2CCCC23CCN(C(=O)n2ccc(NS(C)(=O)=O)n2)CC3)cccc1N1CC2CCC(C1)O2 [Example 149, N-(1-(1-(3-(8-oxa-3-azabicyclo[3.2.1]octan-3-yl)-2-methylbenzyl)-1,8-diazaspiro[4.5]decane-8-carbonyl)-1H-pyrazol-3-yl) methanesulfonamide] | 50 to 75 | 0 to 25 |  | 
12 | CS(=O)(=O)Nc1ccn(C(=O)N2CCN(Cc3ccc(Cl)cc3N3CCOCC3)CC2)n1 [Example 135, N-(1-(4-(4-chloro-2-morpholinobenzyl)piperazine-1-carbonyl)-1H-pyrazol-3-yl) methanesulfonamide] | ≥ 75 | 0 to 25 | 6.00 to 7.00 | 5.00 to 6.00
13 | CS(=O)(=O)Nc1ccn(C(=O)N2CCC3(CCCN3Cc3ccc(C(F)(F)F)c(N4CCCC4)c3)CC2)n1 [Example 160, N-(1-(1-(3-(pyrrolidin-1-yl)-4-(trifluoromethyl)benzyl)-1,8-diazaspiro[4.5]decane-8-carbonyl)-1H-pyrazol-3-yl) methanesulfonamide] | ≥ 75 | 0 to 25 |  | 
14 | CS(=O)(=O)Nc1ccn(C(=O)N2CCN(Cc3ccc(Cl)c(-c4nnn[nH]4)c3)CC2)n1 [Example 214, N-(1-(4-(4-chloro-3-(1H-tetrazol-5-yl)benzyl)piperazine-1-carbonyl)-1H-pyrazol-3-yl) methanesulfonamide] | 0 to 25 | 0 to 25 |  | 
15 | CS(=O)(=O)Nc1ccn(C(=O)N2CCC3(CCCN3Cc3cccc(Cl)c3)CC2)n1 [Example 148, N-(1-(1-(3-chlorobenzyl)-1,8-diazaspiro[4.5]decane-8-carbonyl)-1H-pyrazol-3-yl)methanesulfonamide] | 0 to 25 | 0 to 25 |  | 
16 | CS(=O)(=O)Nc1ccn(C(=O)N2CCN(Cc3ccc(C(F)(F)F)c(N4CCN(CC(=O)O)CC4)c3)CC2)n1 [Example 281, 2-(4-(5-((4-(3-(methylsulfonamido)-1H-pyrazole-1-carbonyl)piperazin-1-yl)methyl)-2-(trifluoromethyl)phenyl)piperazin-1-yl)acetic acid] | 0 to 25 | 0 to 25 |  | 
17 | CS(=O)(=O)Nc1ccn(C(=O)N2CCN(Cc3ccc(Cl)cc3N3CCCCC3)CC2)n1 [Example 128, N-(1-(4-(4-chloro-2-(piperidin-1-yl)benzyl)piperazine-1-carbonyl)-1H-pyrazol-3-yl) methanesulfonamide] | ≥ 75 | 0 to 25 | ≥ 7.00 | 5.00 to 6.00
18 | CC(=O)Nc1ccn(C(=O)N2CCC3(CCCN3Cc3ccc4c(c3)OCCO4)CC2)n1 [Example 98, N-(1-(1-((2,3-dihydrobenzo[b][1,4]dioxin-6-yl)methyl)-1,8-diazaspiro[4.5]decane-8-carbonyl)-1H-pyrazol-3-yl)acetamide] | ≥ 75 | 0 to 25 | 6.00 to 7.00 | 5.00 to 6.00
19 | CS(=O)(=O)Nc1ccn(C(=O)N2CCN(Cc3ccc(C(F)(F)F)cc3N3CCC(O)CC3)CC2)n1 [Example 252, N-(1-(4-(2-(4-hydroxypiperidin-1-yl)-4-(trifluoromethyl)benzyl)piperazine-1-carbonyl)-1H-pyrazol-3-yl) methanesulfonamide] | ≥ 75 | 0 to 25 | ≥ 7.00 | 5.00 to 6.00
